The results in this text go back to paper PMC7531004, “Discovery of gramicidin A analogues with altered activities by multidimensional screening of a one-bead-one-compound library” (Nature Communications, 2020).

Where a SMILES comes first, the peptide text is derived from it. [ ]: non-standard residue; d: D form. The star is where a group is joined. NHCH2CH2OH = OCCN*; For = O=C*

Data set [1] in a line: H+/Na+ transport assay of bead-derived peptides (one-point).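 Note: relative to parent gramicidin A activity set to 1.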 The class given is biochemical. Further details: key: relative activity; mean of two control wells = 1.00. The settings on record: bead-derived peptide solution, EYPC/EYPG LUVs. The essentials:
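Values are normalized fluorescence, with Triton X-100 defining 100% and untreated LUVs 0%, and the two control wells averaging 1.00. Vesicles carried 1.0 mM pyranine and included egg yolk phosphatidylglycerol. Peptides were incubated with them 30 min at room temperature.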

The subject of data set [2] is P388 mouse leukemia cells. The note with it: 92 h. In a few lines:
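Peptide stocks diluted 250× in growth medium; P388 cells 1 × 10^4 cells/mL final; 37 °C, 5% CO2, 92 h. WST-1 + 1-methoxy PMS, 4 h, A415. Output: % viability.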

Data set [3] deals with Streptococcus pyogenes SSI-9. The data set can be described thus: Antibacterial activity assay of bead-derived peptides (three concentrations). Further details: key: +++: inhibition by the 640-fold diluted peptide solution; ++: inhibition by the 160-fold diluted solution; +: inhibition by the 40-fold diluted solution; -: no inhibition. The settings on record: S. pyogenes, bead-derived peptide solution, three concentrations. The class given is cell-based. In a few lines:
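Growth inhibition scored visually as precipitated bacteria after 37 °C, 18 h incubation. Streptococcus pyogenes SSI-9 inoculum of 2 × 10^5 CFU in Ca2+/Mg2+-adjusted Mueller Hinton broth plus 5% laked horse blood; peptides tested at three levels: stock, 4-fold and 16-fold DMSO dilutions.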

For the compound `CNC(=O)C[C@@H](NC(=O)[C@@H](NC(=O)[C@@H](CC(C)C)NC(=O)[C@H](C)NC(=O)[C@H](NC(=O)[C@H](C)NC(=O)CNC(=O)[C@@H](NC=O)C(C)C)C(C)C)C(C)C)C(=O)N[C@@H](Cc1c[nH]c2ccccc12)C(=O)N[C@H](CC(C)C)C(=O)N[C@@H](Cc1c[nH]c2ccccc12)C(=O)N[C@@H](C(=O)N[C@@H](Cc1c[nH]c2ccccc12)C(=O)N[C@H](CC(C)C)C(=O)N[C@@H](Cc1c[nH]c2ccccc12)C(=O)NCCO)C(C)C` [compound 12687] (For-VGA[dV]A[dL]V[dD](NHMe)W[dL]W[dV]W[dL]W-NHCH2CH2OH), in data set [1], the “H+/Na+ transport activity normalized against the value of 1 (1.00)” value (shortened to “H+/Na+ transport activity normalized”) worked out at 1.29. Besides, the cell viability/% in data set [2] was determined as 100.0%. Also, the antibacterial activity result in data set [3] is “-”.
In the case of `CC(C)C[C@@H](NC(=O)[C@H](Cc1c[nH]c2ccccc12)NC(=O)[C@H](NC(=O)[C@H](Cc1c[nH]c2ccccc12)NC(=O)[C@@H](CC(C)C)NC(=O)[C@H](Cc1c[nH]c2ccccc12)NC(=O)[C@H](NC(=O)[C@@H](NC(=O)[C@H](NC(=O)[C@H](C)NC(=O)[C@H](NC(=O)[C@H](C)NC(=O)CNC(=O)[C@@H](NC=O)C(C)C)C(C)C)C(C)C)C(C)C)C(C)C)[C@H](C)O)C(=O)N[C@@H](Cc1c[nH]c2ccccc12)C(=O)NCCO` [compound 1849] (For-VGA[dV]A[dV]V[dV]W[dL]W[dT]W[dL]W-NHCH2CH2OH), in data set [1], the “H+/Na+ transport activity normalized” value stood at 1.07. Further, the cell viability/% in data set [2] was 100.0%. Also, the antibacterial activity result in data set [3] is recorded as “+”.
In the same order, the values of `CC(C)C[C@@H](NC(=O)[C@H](C)NC(=O)CNC(=O)[C@@H](NC=O)C(C)C)C(=O)N[C@@H](C)C(=O)N[C@H](CC(C)C)C(=O)N[C@H](C(=O)N[C@H](CC(C)C)C(=O)N[C@@H](Cc1c[nH]c2ccccc12)C(=O)N[C@H](CC(C)C)C(=O)N[C@@H](Cc1c[nH]c2ccccc12)C(=O)N[C@H](CC(C)C)C(=O)N[C@@H](Cc1c[nH]c2ccccc12)C(=O)N[C@@H](C(=O)N[C@@H](Cc1c[nH]c2ccccc12)C(=O)NCCO)C(C)C)C(C)C` [compound 8635] (For-VGA[dL]A[dL]V[dL]W[dL]W[dL]W[dV]W-NHCH2CH2OH) are 1.05, 6.4% and “+”.
In the same order, the values of `CC(C)C[C@@H](NC(=O)[C@H](C)NC(=O)CNC(=O)[C@@H](NC=O)C(C)C)C(=O)N[C@@H](C)C(=O)N[C@@H](C(=O)N[C@H](C(=O)N[C@H](CC(C)C)C(=O)N[C@@H](Cc1c[nH]c2ccccc12)C(=O)N[C@@H](C(=O)N[C@@H](Cc1c[nH]c2ccccc12)C(=O)N[C@@H](C(=O)N[C@@H](Cc1c[nH]c2ccccc12)C(=O)N[C@@H](C(=O)N[C@@H](Cc1c[nH]c2ccccc12)C(=O)NCCO)C(C)C)C(C)C)C(C)C)C(C)C)C(C)C` [compound 7938] (For-VGA[dL]A[dV]V[dL]W[dV]W[dV]W[dV]W-NHCH2CH2OH) are 1.10, 17.4% and “+”.
In the same order, the values of `CC(C)C[C@@H](NC(=O)[C@H](C)NC(=O)CNC(=O)[C@@H](NC=O)C(C)C)C(=O)N[C@@H](C)C(=O)N[C@@H](C(=O)N[C@H](C(=O)N[C@@H](C(=O)N[C@@H](Cc1c[nH]c2ccccc12)C(=O)N[C@@H](C(=O)N[C@@H](Cc1c[nH]c2ccccc12)C(=O)N[C@H](CC(C)C)C(=O)N[C@@H](Cc1c[nH]c2ccccc12)C(=O)N[C@@H](C(=O)N[C@@H](Cc1c[nH]c2ccccc12)C(=O)NCCO)C(C)C)C(C)C)C(C)C)C(C)C)C(C)C` [compound 1289] (For-VGA[dL]A[dV]V[dV]W[dV]W[dL]W[dV]W-NHCH2CH2OH) are 1.03, 95.6% and “+”.
As to `CC(C)C[C@@H](NC(=O)[C@H](C)NC(=O)CNC(=O)[C@@H](NC=O)C(C)C)C(=O)N[C@@H](C)C(=O)N[C@@H](C(=O)N[C@H](C(=O)N[C@H](CC(C)C)C(=O)N[C@@H](Cc1c[nH]c2ccccc12)C(=O)N[C@@H](C(=O)N[C@@H](Cc1c[nH]c2ccccc12)C(=O)N[C@H](CC(C)C)C(=O)N[C@@H](Cc1c[nH]c2ccccc12)C(=O)N[C@@H](C(=O)N[C@@H](Cc1c[nH]c2ccccc12)C(=O)NCCO)C(C)C)C(C)C)C(C)C)C(C)C` [compound 4895] (For-VGA[dL]A[dV]V[dL]W[dV]W[dL]W[dV]W-NHCH2CH2OH), the “H+/Na+ transport activity normalized” value in data set [1] is recorded as 1.16. In data set [2], this compound had a cell viability/% of 48.2%. Further, the antibacterial activity entry in data set [3] is recorded as “+”.
In the same order, the values of `CNC(=O)C[C@@H](NC(=O)[C@@H](NC(=O)[C@@H](CC(C)C)NC(=O)[C@H](C)NC(=O)[C@@H](CC(C)C)NC(=O)[C@H](C)NC(=O)CNC(=O)[C@@H](NC=O)C(C)C)C(C)C)C(=O)N[C@@H](Cc1c[nH]c2ccccc12)C(=O)N[C@H](CC(C)C)C(=O)N[C@@H](Cc1c[nH]c2ccccc12)C(=O)N[C@@H](C(=O)N[C@@H](Cc1c[nH]c2ccccc12)C(=O)N[C@H](CC(C)C)C(=O)N[C@@H](Cc1c[nH]c2ccccc12)C(=O)NCCO)C(C)C` [compound 7400] (For-VGA[dL]A[dL]V[dD](NHMe)W[dL]W[dV]W[dL]W-NHCH2CH2OH) are 1.30, 100.0% and “-”.
Turning to `CC(C)C[C@@H](NC(=O)[C@H](C)NC(=O)CNC(=O)[C@@H](NC=O)C(C)C)C(=O)N[C@@H](C)C(=O)N[C@@H](C(=O)N[C@H](C(=O)N[C@@H](C(=O)N[C@@H](Cc1c[nH]c2ccccc12)C(=O)N[C@@H](C(=O)N[C@@H](Cc1c[nH]c2ccccc12)C(=O)N[C@@H](C(=O)N[C@@H](Cc1c[nH]c2ccccc12)C(=O)N[C@@H](C(=O)N[C@@H](Cc1c[nH]c2ccccc12)C(=O)NCCO)C(C)C)C(C)C)C(C)C)C(C)C)C(C)C)C(C)C` [compound 9610] (For-VGA[dL]A[dV]V[dV]W[dV]W[dV]W[dV]W-NHCH2CH2OH), the “H+/Na+ transport activity normalized” value in data set [1] was 1.14. This compound had a cell viability/% in data set [2] of 100.0%. For the same compound, the antibacterial activity entry in data set [3] is listed as “+”.
In the same order, the values of `CC(C)C[C@@H](NC(=O)[C@H](C)NC(=O)[C@H](NC(=O)[C@H](C)NC(=O)CNC(=O)[C@@H](NC=O)C(C)C)C(C)C)C(=O)N[C@H](C(=O)N[C@@H](C(=O)N[C@@H](Cc1c[nH]c2ccccc12)C(=O)N[C@@H](C(=O)N[C@@H](Cc1c[nH]c2ccccc12)C(=O)N[C@H](CC(C)C)C(=O)N[C@@H](Cc1c[nH]c2ccccc12)C(=O)N[C@@H](C(=O)N[C@@H](Cc1c[nH]c2ccccc12)C(=O)NCCO)C(C)C)C(C)C)[C@H](C)O)C(C)C` [compound 7131] (For-VGA[dV]A[dL]V[dT]W[dV]W[dL]W[dV]W-NHCH2CH2OH) are 1.08, 100.0% and “-”.
